The subject of one assay is C3 fibroblasts. Description: Cell locomotion assay, timelapse image analysis of C3 fibroblasts. In kind it is cell-based, murine. The method, then: For motility experiments, 10^5 cells were subcultured into 25 cm^2 tissue culture flasks (Corning), and maintained for 12 h as above. The medium was then aspirated, cells were rinsed with Hanks Balanced Salt Solution (HBSS) (Gibco) and fresh, serum-free α-MEM containing 4.0 μg/ml transferrin (Gibco) and 2.0 μg/ml insulin (Sigma) (defined medium) was added to the flasks.
Cell locomotion was recorded using a computerized timelapse analysis system (Image 1, Universal Imaging Corporation, Westchester, Pa.) that measures nuclear displacement. During the filming period, cells were maintained at 37° C. in defined-media at physiological pH.
A 10 amino acid peptide corresponding to one of the HA binding domains of RHAMM, peptide^aa423-432 (Yang et al., 1993), was synthesised and added at various concentrations (0,0.1, 1.0, 5.0, 10.0 and 50.0 ng/ml) to 70% confluent C3 fibroblasts. Cell locomotion was monitored by image analysis for 2 h from the addition of the peptide. A scrambled peptide was used as control.
RHAMM-GST fusion protein prepared and purified as described in (b) above was added at concentrations of 1 pg/ml, 1 ng/ml, 1 μg/ml and 1 mg/ml to 70% confluent C3 cultures and cell locomotion was monitored by image analysis for 2 h from protein addition as described in Example 5.
For each experiment, 30 cells were tracked every 10 min for a 1 hr period.
RHAMM-GST fusion protein, as described in (d) above, and deleted/mutated RHAMM-GST fusion protein, as described in (h) above were added at 5 ng/ml to subconfluent cultures of C3 cells and cell locomotion was monitored by image analysis for 2 h from protein addition as described in Example 5.

A short description of assay [1]: HA binding transblot assay with biotinylated HA. The procedure:
For the HA-binding assay, cell lysates were separated on SDS-PAGE, transblotted onto nitrocellulose membranes, then blots were incubated with biotinylated HA instead of primary antibody (Yang et al., 1993). Streptavidin-peroxidase conjugate (Sigma) was used as a second antibody, and blots were processed as above.

Assay [2] relates to C3 cells. In words: Cell cycle analysis by flow cytometry. In kind it is cell-based, murine. The settings on record: serum starved, then serum stimulated; 5 μg/ml GST-RHAMM. The method, then: For cell cycle analysis, cells of the ras-transformed fibroblast cell line C3 were harvested and fixed with 70% ethanol. The fixed cells were denatured by 2N HCl containing 0.5% Triton X-100 at RT for 30 min and then neutralized by treatment with 0.1 M Na2B4O7, pH 8.5. Total DNA content was detected by propidium iodide staining. The stained cells were analyzed by flow cytometry using a Coulter Electronics Inc. EPICS 753 cell sorter and PARA1 cell cycle analysis software.

The test system of assay [3] is C3 cells. Description: Growth analysis (cell density assay). In kind it is cell-based, murine. The method, then:
Cell density assay was carried out by seeding 5×10^4 cells in 60 mm dishes. Cells were cultured in DMEM supplemented with 10% FCS. At each point, cells were harvested by trypsinization and cell concentrations were determined by counting cells by trypan blue exclusion method.

In a further assay the test system is p34^cdc2. Description: Western blot of p34^cdc2 protein expression. In kind it is cell-based, murine. The method, then:
For Western blot analysis, C3 cells in 100 mm dishes were washed 2× in PBS and then lysed in 0.25 ml ice cold buffer containing 50 mM β-glycerophosphate (pH 7.3), 1% Nonidet p-40, 10 mM NaF, 1% aprotinin and 1 mM Sodium Vanadate. The lysates were centrifused at 30,000 g for 20 min at 4° C. Protein concentration was determined by Biorad protein assay kit. Proteins were resolved on 10% SDS-polyacrylamide gels and transferred to nitrocellulose membranes in a Tris-Cl buffer containing 25 mM Tris, 192 mM Glycine and 20% (v/v) methanol, pH 8.3 at 100V for 1 hour at 4° C. Filters were incubated with antibody to p34^cdc2 (1:5000 dilution of polyclonal rabbits antiserum raised against the C-terminal peptide (LDNQIKKM) (SEQ ID NO:58) of Human […] protein) and developed with horseradish peroxidase-conjugated goat antibody to rabbit immunoglobulin G (sigma). Blotting was visualized by enhanced chomilumineacence Western blotting system (Amersham) following manufacturer's instruction.
(In general: A western blot detects proteins with antibodies after separation by electrophoresis.)

A further assay concerns cdc2 mRNA. Description: cdc2 mRNA Northern blot, nuclear run-on and mRNA stability. In kind it is cell-based, murine. Conditions: actinomycin D 20 μg/ml for stability. The method, then:
Total cellular RNA was extracted by a rapid RNA isolation method using Trizol reagent (GIBCO) as per manufacturer's instructions. For half-life measurements, transcription was inhibited by addition of 20 ug/ml actinomycin D. RNA was isolated at different times and analyzed for cdc2 gene expression. 20 ug of total cellular RNA was electrophoresed through 1% formamide-agarose gels and blotted onto Nytran membranes. The blots were prehybridized and probed with random primer 32p-labelled murine cdc2 cDNA (Paul Nurse). Loading of RNA was determined by probing with glyceraldehyde-3-phosphate dehyrogenase (GAPDH) cDNA. Autoradiography was done by Phosphoimager SF (Molecular Dynamics) using storage phosphor imaging.
Nuclear run-on assay was performed using 32P-labelled RNA to probe filter-bound cdc2 and GAPDH single strand cDNA inserts. Quantification of transcription was determined by scanning phosphor images using Multiquant software program (Molecular Dynamics).

Assay [4] has as its system C3 cells. Description: Tumorigenicity of treated C3 cells injected subcutaneously. In kind it is in vivo, syngeneic C3H/HeN mice. The method, then: (§1) C3 cells were serum starved, then cultured in presence of serum and GST or GST-HM for 48-hours and released from the substratum in Hanks. For assessing the tumorigenicity of the treated cells, 3×10^5 viable cells were injected subcutaneously into the right hind leg of syngeneic C3H/HeN Mice. The mice were maintained for 6-8 weeks after which tumors were removed, weighed and pieces processed for histology using conventional paraffin embedding techniques. For experimental metastasis assays, 4×10^3 treated cells were injected into the tail vein of syngeneic C3H/HeN mice. The mice were maintained for 16-18 days, euthanased and their lungs were stained by Boulin solution (picric acid, formaldehyde and acetic acid [15:5.:1]), removed and metastatic foci were counted under dissecting microscope.

The test system of assay [5] is C3 cells. In words: Experimental metastasis assay of treated C3 cells (tail vein). In kind it is in vivo, syngeneic C3H/HeN mice. The method, then: as §1, with “For experimental metastasis assays, 4×10^3 treated cells were injected into the tail vein of syngeneic C3H/HeN mice.” left out
[6] abbreviates: treated cells that did form tumours.

For “RHAMM-GST fusion protein: RHAMM II cDNA cloned into pGEX-2T and expressed as soluble glutathione S-transferase-RHAMM fusion protein”, the “concentration at which cell locomotion was significantly inhibited” value in the assay with C3 fibroblasts (70% confluent C3, 2 h) is no less than 1 ng/mL. In addition, the “effect on cell locomotion” value in the assay with C3 fibroblasts (C3 fibroblasts, result in words) was “effective inhibitor of cell motility”. Besides, the reduction of locomotion in the assay with C3 fibroblasts (at 1 ng/ml, p<0.0001) is 40%. This substance displayed a reduction in locomotion with C3 fibroblasts (concentrations as low as 1 ng/ml) of 3.5 fold. Moreover, the “binding to biotinylated HA” value in assay [1] is “showed binding to biotinylated HA”. Moreover, the “effect on cell cycle” value in the assay with C3 cells [2] is “arrested and accumulated in G2/M phase”. Also, the “effect on cell proliferation” value in the assay with C3 cells [3] (5 μg/ml GST-RHAMM) is reported as “decrease in cell proliferation”. The “fate of treated cells” value in the assay on C3 cells [3] (RHAMM-treated C3 cells) is on record as “proceeded to cell death”. The “p34^cdc2 expression” value in the assay on p34^cdc2 (10 μg/ml) was “greatly reduced”. Also, the “effect on p34^cdc2 expression” value in the assay with p34^cdc2 (range of concentrations) is recorded as “dose dependent inhibition”. The “effect on cdc2 mRNA” value with cdc2 mRNA is “degradation of cdc2 mRNA without alteration of transcription”. Also, the “Tumorigenicity, Frequency” value in the assay on C3 cells [4] (C3 cells treated 48 hours before s.c. injection of 3 × 10^5 cells) is given as 2/4. In the assay with C3 cells [4] (s.c. injection of 3 × 10^5 treated cells), the “Tumorigenicity, Latency” value was determined as 22 days. The Tumorigenicity, Tumor size Day 25 in the assay on C3 cells [4] (s.c. injection of 3 × 10^5 treated cells, Day 25) was found to be 90 ± 0.7 mm². Also, in the assay on C3 cells [4] (setting [6]), the “latency compared to controls” value was “increased” and the “ultimate tumour size compared to controls” value is on record as “reduced”. In addition, the “reduction of incidence of tumours” value in the assay with C3 cells [4] (treatment of C3 cells prior to inoculation) was determined as 50%. In addition, the “Expt. Metastases, Frequency” value with C3 cells [5] (i.v. injection of 4 × 10^5 treated cells) is recorded as 3/4. Further, the “Expt. Metastases, No.” value in the assay with C3 cells [5] (i.v. injection of 4 × 10^5 treated cells, lung foci) is less than 10. In the assay with C3 cells [5] (pre-treatment of cells), the “metastatic capability of C3 cells” value was “greatly reduced the metastatic capability”.

The record behind these values is US6429291B1, “Hyaluronan receptor protein” (priority 1994, dated 2002).
